Read-outs that look alike come from different tables or passages of the source.
Legend:
[1] = test system: T. b. brucei Lister strain 427 bloodstream form (BSF); assay: In vitro activity assay for T. brucei (resazurin growth inhibition); assay type: cell-based; conditions: Trypanosoma brucei
[2] = test system: intracellular T. cruzi Dm28c amastigotes in U2OS; assay: T. cruzi intracellular amastigotes assay in U2OS (image based); assay type: cell-based; conditions: Trypanosoma cruzi; for EC50: read-out: T. cruzi Dm28c EC50 (AMA)
Protocol: (§1) U2OS human osteosarcoma cells were maintained in DMEM supplemented with high glucose, 10% FBS, and 1% P/S at 37 °C with 5% CO2 in air. […] Cell images were acquired by an automated image analyzer (Operetta, Perkin Elmer Technology, Waltham, MA, USA); analysis included at least 1000 cells in five fields per well. For the imaging of infected cells and parasites, Draq-5 was observed under a 20× air objective. An image analysis algorithm (Columbus, Perkin Elmer Technology) was used to detect the Draq-5 signal in the nuclei of cells and parasites as described in a previous article and shown in Supplementary Figure S1 [20]. The number of parasites was defined by the value of the number of parasites in infected cells of the acquired image.

[3] = test system: L. donovani promastigotes; assay: L. donovani promastigotes assay (resazurin); assay type: cell-based; conditions: for EC50: read-out: L. donovani EC50 (PRO)
[4] = test system: T. cruzi Dm28c epimastigotes; assay: T. cruzi epimastigotes assay (resazurin); assay type: cell-based; conditions: Trypanosoma cruzi, read-out: T. cruzi Dm28c EC50 (EPI)
Protocol: The exponential growth phase of epimastigotes were treated with different concentrations of drugs or 0.1% DMSO as negative control and incubated for 3 days at 28 °C. The viability of parasites was quantified with resazurin as described in the T. brucei assay.

[5] = Host cell toxicity in the T. cruzi amastigote assay; assay type: cell-based; conditions: human, amastigote host cells; read-out: T. cruzi Dm28c CC50 (U2OS)
Protocol: as §1

T. cruzi = test system: T. cruzi; set-up: method as in earlier work; conditions: amiodarone acting alone; reported previously; ref 5 (b3); cited from earlier work
T. cruzi Dm28c = assay: T. cruzi acute in vivo mouse model; set-up: species or system BALB/c mice; conditions: 100 mg/kg p.o.
Description: BALB/c mice were infected with TCT of T. cruzi Dm28c (10^7 cells) by i.p. injection. Five days post-infection, infected mice were sacrificed to collect BSF of T. cruzi. BALB/c mice were intraperitoneally infected with BSF of T. cruzi Dm28c (5 × 10^4 cells). Five days post-infection, BALB/c mice were infected with previously collected 2nd-round BSF cells (3 × 10^4 cells). Mice were divided into groups (n = 10) and treated orally with drugs for 5 consecutive days for 2 weeks by starting from day 2 post-infection administration of DPBS, 100 mg/kg of benznidazole, or 100 mg/kg of SQ109 via p.o. route, respectively. Parasitemia was evaluated every 2 days for 5 weeks by blood collection from the mouse tail vein, and survival was monitored for 2 months. Mice showing impaired health status were euthanized.

[6] = test system: intracellular L. donovani amastigotes in THP-1; assay: L. donovani intracellular amastigotes assay in THP-1 (image based); assay type: cell-based; conditions: Leishmania donovani, 72 h; differentiated THP-1 host cells, 3 days of compound incubation; Figure 2F
[7] = test system: THP-1 human monocyte cell line; assay: Host cell toxicity in the L. donovani amastigote assay; assay type: cell-based; conditions: 3 days of compound incubation; Figure 2F
Protocol: The THP-1 human monocyte cell line was grown in RPMI-1640 medium (Welgene, Gyeongsangbuk-do, Republic of Korea) supplemented with 10% FBS and 1% P/S. For differentiation, THP-1 cells were treated for 3 days with 50 ng/mL of PMA [20]. […] An image analysis was performed as described in the T. cruzi assay (Figure S2).

L. donovani amastigotes = assay: L. donovani (VL) in vivo mouse model, liver LDU; set-up: species or system BALB/c mice; conditions: 30 mg/kg
Protocol: BALB/c mice (n = 5) were injected with 2 × 10^7 hamster spleen-derived L. donovani amastigotes via the retro-orbital venous sinus route. From day 7 post-infection, groups of mice were treated using the drug vehicle only, miltefosine (30 mg/kg), or SQ109 (30, 50, 100 mg/kg). On day 16 post-infection, all animals were humanely euthanized and assessed microscopically using Giemsa-stained liver imprints. […] The LDU values for the drug-treated samples were compared to those of the untreated samples.

[8] = bloodstream forms, read-out: T. brucei BSF EC50 (converted)
[9] = Leishmania donovani, promastigotes

Row | EC50 ([2]; amastigotes in U2OS) | EC50 [3, 9] | EC50 ([4]; epimastigotes) | SMILES | EC50 [1, 8] | CC50 at 3 days [5] | other results
1 | 25 µM | 22 µM | 56 µM | NCCNC1C2CC3CC(C2)CC1C3 (centres unmarked) [Compound 7] | 4.6 µM | > 100 µM | –
2 | 4.9 µM | 2.9 µM | 28 µM | C/C(=C\CC/C(C)=C/CNCCNC1C2CC3CC(C2)CC1C3)CO (centres unmarked) [Compound 9] | 5.4 µM | 27 µM | –
3 | 6.9 µM | 0.55 µM | 45 µM | C/C(=C\CNCCNC1C2CC3CC(C2)CC1C3)CCC(=O)C(C)C (centres unmarked) [Compound 12] | 2 µM | 32 µM | –
4 | > 100 µM | > 100 µM | > 100 µM | CC(C)=CCC/C(C)=C/C=O [Compound 13] | 2.3 µM | > 100 µM | –
5 | > 100 µM | > 100 µM | > 100 µM | CC(C)=CCC/C(C)=C/C(=O)O [Compound 14] | 13 µM | > 100 µM | –
6 | > 100 µM | > 100 µM | > 100 µM | CC(C)=CCCC(C)=CC=NO [Compound 15a] | > 200 µM | > 100 µM | –
7 | > 100 µM | > 100 µM | > 100 µM | CC(C)=CCCC1(C)CC=NO1 (centres unmarked) [Compound 15b] | > 200 µM | > 100 µM | –
8 | > 100 µM | > 100 µM | > 100 µM | ON=C1C2CC3CC(C2)CC1C3 [Compound 16] | > 200 µM | > 100 µM | –
9 | 40 µM | 21 µM | > 100 µM | CC(C)=CCC/C(C)=C/CN [Compound 17] | 32 µM | > 100 µM | –
10 | 50 µM | 51 µM | > 100 µM | NC1C2CC3CC(C2)CC1C3 (centres unmarked) [Compound 18] | 71 µM | > 100 µM | –
11 | – | – | – | O=C1C2CC3CC(C2)CC1C3 [Compound 19] | – | > 100 µM | EC50 ([1]; read-out: T. brucei BSF EC50): > 200 µM; EC50 ([2]; U2OS): > 100 µM; EC50 ([3]; Leishmania donovani): > 100 µM; EC50 [4]: > 100 µM
12 | > 100 µM | 6 µM | > 100 µM | CC(C)=CCC/C(C)=C/CNCCN [Compound 20] | 2.2 µM | > 100 µM | –
13 | 3 µM | 1.27 µM | 14 µM | CC(C)=CCC/C(C)=C/CNCCNC1C2CC3CC(C2)CC1(O)C3 (centres unmarked) [Compound 21] | 3.2 µM | 6.8 µM | EC50 ([3]; promastigotes): 1.3 µM
14 | 7.5 µM | 3.54 µM | 23 µM | CC(C)=CCC/C(C)=C/CNCCNC1C2CC3CC1CC(O)(C3)C2 (centres unmarked) [Compound 22] | 2.9 µM | 29 µM | EC50 ([3]; promastigotes): 3.5 µM
15 | 4.3 µM | 2.3 µM | 20 µM | CC(C)=CCC/C(C)=C/CNCCNC1C2CC3CC1CC(C2)C3O (centres unmarked) [Compound 23] | 1.8 µM | 17 µM | –
16 | 3.2 µM | 1.1 µM | 14 µM | CC(C)=CCC/C(C)=C/CNCCNC1C2CC3CC(C2)C(O)C1C3 (centres unmarked) [Compound 24] | 1.8 µM | 14 µM | –
17 | – | – | – | CCCCc1oc2ccccc2c1C(=O)c1cc(I)c(OCCN(CC)CC)c(I)c1 [amiodarone] | – | – | survival in T. cruzi infection (T. cruzi): 40%
18 | – | – | – | O=C(Cn1ccnc1[N+](=O)[O-])NCc1ccccc1 [benznidazole] | – | – | IC50 ([2]; 72 h, U2OS host cells, 3 days of compound incubation, Figure 2D, read-out: IC50, intracellular T. cruzi amastigote survival): 1.71 µM; survival of T. cruzi infected mice, in words (T. cruzi Dm28c; 40 days after infection): protected all the mice from death; parasitemia, in words (T. cruzi Dm28c; entire experimental period): complete suppression of parasitemia
19 | – | – | – | CCCCCCCCCCCCCCCCOP(=O)([O-])OCC[N+](C)(C)C [miltefosine] | – | – | IC50 ([3]; Leishmania donovani, 72 h, Figure 2E, read-out: IC50, L. donovani promastigote growth): 0.171 µM; IC50 [6]: 1.51 µM; host cell (THP-1) toxicity, in words [7]: no host cell toxicity was observed at the highest tested dose; parasite burden in liver (LDU) (L. donovani amastigotes; 5 days of treatment): 142 ± 24 LDU; parasite reduction (L. donovani amastigotes; versus vehicle-treated group): 87.5%
20 | – | – | – | N=C(N)c1ccc(OCCCCCOc2ccc(C(=N)N)cc2)cc1 [pentamidine, reference compound] | – | – | IC50 ([1]; 3 days (72 h) of compound incubation, Figure 2A, read-out: IC50, T. brucei trypomastigote viability): 0.15 µM

Reference: article PMC8944987, “In Vivo Efficacy of SQ109 against Leishmania donovani, Trypanosoma spp. and Toxoplasma gondii and In Vitro Activity of SQ109 Metabolites” (Biomedicines, 2022)
